Data as given in patent publication US9872928B2, “Diagnostic agent for therapeutic effect on cancer” (HAMAMATSU PHOTONICS K.K., priority 2013, dated 2018).

Experiments:
mitochondria Complex-1 = assay: Evaluation of binding affinity with respect to mitochondria Complex-1 (displacement of [3H]dihydrorotenone tracer from mitochondrial fraction); set-up: species or system rat (brain) and bull (heart); settings: FIG. 1
Description: A dose-response curve of each of a TEST substance and a positive substance was created, and a concentration (IC50 value) at which the TEST substance and the positive substance suppress 50% of bonding between a tracer and mitochondrial Complex-1 (receptor) and an absolute inhibition constant (Ki) were calculated. As the TEST substance, [^18F]BMS-747158-02 (2-tert-butyl-4-chloro-5-[4-(2-fluoro-ethoxymethyl)-benzyloxy]-2H-pyri dazin-3-one, hereinafter also referred to as “BMS”), BCPP-EF, BCPP-BF, BCPP-PF, BCPP-EM, and BMS-P were used. The details will be described below.
An animal tissue was weighed (wet weight), a homogenization buffer solution (10 mmol/L Tris-HCl buffer solution (pH, 7.40) of 250 mmol/L sucrose, 1 mmol/L succinic acid, and 0.2 mmol/L EDTA) was added in an amount twice the amount of the animal tissue, and the mixture was homogenized under ice cooling. Thereafter, the homogenized suspension solution was centrifuged (1200×g, 4° C., 20 minutes). The supernatant was collected and centrifuged (26000×g, 4° C., 15 minutes). […] The protein concentration of the mitochondrial fraction was measured using BCA Protein Assay Reagent (manufactured by Pierce Companies). […]
Measurement was performed according to the following order. Two samples were prepared for each concentration, and each sample was measured three times. […]

[1] = system: SCCVII cells tumor tissue; assay: Judgment of effect of cancer therapy using PET measurement in cancer-bearing mice after X-ray irradiation; format: in vivo, mouse
Description: When the tumor volume reached about 100 mm^3, a cancer therapy using irradiation with an X-ray was performed to a tumor site of a mouse at a dose ratio of 1.2 Gy/minute using an apparatus which can perform irradiation with an X-ray having an energy of 250 keV (Hitachi Power Solutions MBR-1520R-3). As conditions of irradiation with X-ray, four conditions of non-irradiation (0 Gy, control), 6 Gy, 15 Gy, and 30 Gy were set. Also after the irradiation treatment, the tumor volume was regularly measured according to the above method.
Two days and seven days after irradiation with X-ray, a mouse with a tumor tissue (cancer-bearing mouse) was anesthetized by isoflurane gas. Thereafter, four mice were fixed at one time in a gantry of an animal PET camera (HAMAMATSU SHR-38000). For absorption correction, transmission measurement was performed using a ^68Ge-^68Ga calibration-ray source for 15 minutes. Thereafter, about 5 MBq/0.2 mL of [^18F]BCPP-EF was administered into a tail vein of a mouse, and dynamic emission measurement was performed for 60 minutes. FIG. 3 illustrates a PET image showing an effect of the radiation therapy in the tumor tissue of a mouse.
After the PET measurement was finished, each of the mice was moved to a small animal X-CT (SHIMADZ Clairvivo CT) with a fixed stand while being anesthetized, and CT measurement was performed for ten minutes. A form image (X-CT image) obtained by the CT measurement was collected, a PET accumulated image 40 to 60 minutes after administration of [^18F]BCPP-EF was superimposed on the X-CT image, and a PET image of a cancer tissue was identified.
An interest region was set on the PET image of the cancer tissue, and a value normalized with a body weight of an individual and an administration radiation dose was used as an accumulation amount of [^18F]BCPP-EF in the cancer tissue. The results are illustrated in FIG. 4.

Structure (SMILES)	affinity with respect to mitochondria Complex-1 (mitochondria Complex-1; suggested from dose-response curve)	IC50 (concentration suppressing 50% of bonding between tracer and mitochondrial Complex-1), comparison in words (mitochondria Complex-1; tracer dihydrorotenone[2-isopropyl-3H(N)], 22° C., 30 minutes)	accumulation in the tumor tissue (PET) as the irradiation dose was increased ([1]; X-ray 0, 6, 15, 30 Gy, FIGS. 3 and 4)	accumulation in the tumor tissue (PET) ([1]; before the radiation therapy, tail vein administration)	increase in accumulation in proportion to the radiation dose, duration ([1]; seven days after irradiation with radiation, FIGS. 3 and 4)	accumulation in the tumor tissue (PET) ([1]; two days after irradiation with radiation, PET image 40 to 60 minutes after administration)
CC(C)(C)n1ncc(OCc2ccc(OCCCCF)nc2)c(Cl)c1=O [BCPP-BF]	high affinity	lowest IC50				
CC(C)(C)n1ncc(OCc2ccc(OCCOCC[18F])nc2)c(Cl)c1=O [[^18F]BCPP-EF]			increase in accumulation	not observed	continued until seven days after irradiation	increased
